Results taken from US7396524B2, “Methods for screening compounds for proarrhythmic risk and antiarrhythmic efficacy” (Main Line Health Heart Center, priority 2005, dated 2008).
Like-named read-outs stand apart in the source and are kept apart here.

What was measured:
[1] = system: rabbit left ventricular wedge preparations and single rabbit ventricular myocytes
[2] = experimental data; cited from earlier work
[3] = cited from earlier work
Purkinje fiber = conditions: cited from earlier work
[4] = system: rabbit left ventricular wedge preparations; experiment: Rabbit left ventricular wedge preparation: endocardial APD90, EAD and TdP
Procedure: Female rabbits weighting 2.5-3 kg were anticoagulated with heparin and anesthetized with pentobarbital (30-35 mg/kg, i.v.). The chest was opened via a left thoracotomy, and the heart was excised and placed in a cardioplegic solution consisting of cold (4° C.) normal Tyrode's solution. Transmural wedges with dimensions of approximately 1.5 cm wide and 2-3 cm long were dissected from the left ventricle. The wedge tissue was cannulated via the circumflex or left main artery and perfused with cardioplegic solution. The preparation was then placed in a small tissue bath and arterially perfused with Tyrode's solution containing 4 mM K^+ buffered with 95% O2 and 5% CO2 (T: 35.7±0.1° C., perfusion pressure: 35-45 mmHg). The ventricular wedge was allowed to equilibrate in the tissue bath until electrically stable, approximately one hour. The preparations were stimulated at basic cycle lengths (BCL) of 1000 and 2000 ms using bipolar silver electrodes insulated except at the tips and applied to the endocardial surface.
A transmural ECG signal was recorded in all experiments using extracellular silver/silver chloride electrodes placed in the Tyrode's solution bathing the preparation. Electrodes were placed 1.0 to 1.5 cm from the epicardial and endocardial surfaces, along the same vector as the transmembrane recordings (Epi: “+” pole). The QT interval was defined as the time from the onset of the QRS to the point at which the final downslope of the T wave crosses the isoelectric line. Transmembrane action potentials were recorded simultaneously from epicardial and endocardial sites of the rabbit left ventricular wedge preparations. The action potential duration was measured at 90% repolarization (APD90).

[5] = system: L-type calcium channel current (ICa,L); experiment: Ratio of ICa,L recovery time constant (whole-cell voltage clamp, double-pulse protocol) to endocardial APD90; assay type: cell-based; conditions: 30 μM; control ratio 0.448; rabbit
Procedure: Single rabbit ventricular myocytes were isolated using the enzymatic digestion method as described in Rials et al., Circulation 1997; 96:1330-1336. The rabbit heart was initially perfused with 500 ml Ca^2+-free solution (in mM: NaCl 125, KCl 3.5, KH2PO4 1.5, MgCl2 1, NaHCO3 20, glucose 10) gassed with 95% O2-5% CO2 at 37° C. at a rate of 30 ml/min with a peristaltic pump. The heart was then perfused with 80 ml enzyme solution (48 mg collagenase (type II), 12 mg hyaluronidase, 80 mg BSA, and 300 mg taurine to the Ca^2+-free solution). The enzyme solution passed through the heart a single time before 40 ml, and recirculation after 40 ml. […]
ICa,L was recorded in rabbit single ventricular myocytes at 35.7±0.1° C. using the whole-cell voltage-clamp technique as described by Linz and Meyer, Pflugers Arch. […]
The action potentials were first recorded from the endocardium of the rabbit left ventricular wedge preparation at a basic cycle length of 2000 ms before and after exposure to a test compound. […]
The ratio of ICa,L recovery time constant to endocardial APD90 under control and after exposure to one of the test compounds described above was determined as follows: the ratio equals τ(ms)/APD90 (ms). The relative TdP risk score was then calculated based on the change in the QT interval and the ratio according to the criteria listed in Table 1. […]

| Compound | Maximal TdP Score ([1]; 20 min) | maximal TdP score in the testing concentration range ([1]; 20 min) | further results |
| --- | --- | --- | --- |
| COc1c(N2C[C@@H]3CCCN[C@@H]3C2)c(F)cc2c(=O)c(C(=O)O)cn(C3CC3)c12 [moxifloxacin] | 4.0 ± 0.0 | 4.00±0.00 |  |
| O=C(CCCN1CCC(O)(c2ccc(Cl)cc2)CC1)c1ccc(F)cc1 [haloperidol] | 4.2 ± 0.6 | 4.20±0.58 |  |
| CC(C)COCC(CN(Cc1ccccc1)c1ccccc1)N1CCCC1 (stereo not shown) [bepridil] | 7.5 ± 0.3 | 7.50±0.26 | increase in the QT interval [2]: fails to produce a significant increase; TdP risk in humans [3]: known to cause TdP in humans; increase in the action potential duration of the Purkinje fiber (Purkinje fiber): have not been shown to produce a significant increase |
| O=C(NCC1CCCCN1)c1cc(OCC(F)(F)F)ccc1OCC(F)(F)F (stereo not shown) [flecainide] | 1.3 ± 0.2 | 1.25±0.22 |  |
| CN(C)CCCC1(c2ccc(F)cc2)OCc2cc(C#N)ccc21 (stereo not shown) [citalopram] | 1.3 ± 0.2 | 1.25±0.22 |  |
| CN(CCOc1ccc(NS(C)(=O)=O)cc1)CCc1ccc(NS(C)(=O)=O)cc1 [dofetilide] |  |  | increase in rabbit endocardial APD90 ([4]; dofetilide 0.003 μM vs control, n=8): 76%; development of EAD (preparations) ([4]; dofetilide 0.003 μM, rabbit left ventricular wedge preparations): seven of eight; TdP (rabbits) ([4]; dofetilide 0.01 μM): all of eight; rabbit endocardial APD90 ([4]; female, rabbit, 0.003 μM): 443 ± 27 ms |
| C=C[C@H]1C[N@@]2CC[C@H]1C[C@@H]2[C@@H](O)c1ccnc2ccc(OC)cc12 [quinidine] | 11.8 ± 0.2 | 11.75±0.22 |  |
| CNCCC(Oc1ccc(C(F)(F)F)cc1)c1ccccc1 (stereo not shown) [fluxetine] |  |  | maximal TdP score in the testing concentration range ([1]; Table 1 criteria, means ±SEM, text and FIG. 7 legend): 0.00±0.00; Maximal TdP Score ([1]; Table 2, Table 1 criteria, means ±SEM): 0.0 ± 0.0 |
| CCCCc1oc2ccccc2c1C(=O)c1cc(I)c(OCCN(CC)CC)c(I)c1 [amiodarone] |  |  | TdP risk in humans [3]: rarely causes TdP |
| CC(C)NCC(O)c1ccc(NS(C)(=O)=O)cc1 (stereo not shown) [sotalol] | 10.0 ± 0.0 | 10.00±0.00 | ratio of ICa,L recovery time constant (τ) to endocardial APD90 [5]: 0.325 |
